Source: PubChem BioAssay AID330 (DTP/NCI, 2004)
Inconclusive results and toxic doses are left out.

Test system: P388 leukemia ip, CD2F1 mice, survival T/C
Assay: NCI In Vivo Anticancer Drug Screen. Data for tumor model P388 Leukemia (intraperitoneal) in CD2F1 (CDF1) mice
Conditions: endpoint: median survival time, higher = longer survival
Procedure, shortened: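 Mice carrying the transplanted tumor received test compound or vehicle. Survival was recorded in each group, and the value is the treated-group measurement divided by that of the vehicle-treated control group.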

**Q.** Which results are given for `O=C1NC(=O)C2(CC3CCCC(C2)N3)N1` (stereo not given)?
**A.** T/C (dose: 100.0 mg/kg/injection, schedule: Q04DX003 (ip), vehicle: water): 101 % of control; T/C (dose: 200.0 mg/kg/injection, schedule: Q04DX003 (ip), vehicle: water): 99 % of control; T/C (dose: 400.0 mg/kg/injection, schedule: Q04DX003 (ip), vehicle: water): 103 % of control

**Q.** Which T/C (dose: 50.0 mg/kg/injection, schedule: Q04DX003 (ip), vehicle: other) does the source give for `CCCCNC(C)(C)C(SS)c1ccc(C(F)(F)F)cc1` (stereo not given) here?
**A.** 100 % of control

**Q.** And the T/C (dose: 100.0 mg/kg/injection, schedule: Q04DX003 (ip), vehicle: other)?
**A.** 104 % of control

**Q.** What does the source list for `CCOC(=O)c1[nH]c(=O)[nH]c(=O)c1I`?
**A.** T/C (dose: 12.5 mg/kg/injection, schedule: Q01DX009 (ip), vehicle: distilled water + Tween-80): 97 % of control; T/C (dose: 25.0 mg/kg/injection, schedule: Q01DX009 (ip), vehicle: distilled water + Tween-80): 105 % of control; T/C (dose: 50.0 mg/kg/injection, schedule: Q01DX009 (ip), vehicle: distilled water + Tween-80): 106 % of control; T/C (dose: 100.0 mg/kg/injection, schedule: Q01DX009 (ip), vehicle: distilled water + Tween-80): 105 % of control; T/C (dose: 200.0 mg/kg/injection, schedule: Q01DX009 (ip), vehicle: distilled water + Tween-80): 105 % of control

**Q.** With `COC(C)(C)c1ccccc1[S+]1OC(C)(C)c2ccccc21` (stereo not given) as the molecule, how does the T/C (dose: 100.0 mg/kg/injection, schedule: Q04DX002 (ip), vehicle: suspension in saline) read?
**A.** 96 % of control

**Q.** What about the T/C (dose: 200.0 mg/kg/injection, schedule: Q04DX002 (ip), vehicle: suspension in saline) of the same molecule?
**A.** 100 % of control

**Q.** And the T/C (dose: 400.0 mg/kg/injection, schedule: Q04DX002 (ip), vehicle: suspension in saline)?
**A.** 109 % of control

**Q.** For `CCCC(=O)O[C@H]1/C(=C/C(=O)OC)C[C@H]2C[C@H]([C@@H](C)O)OC(=O)C[C@H](O)C[C@@H]3C[C@H](OC(=O)CC(C)C)C(C)(C)[C@](O)(C[C@@H]4C/C(=C\C(=O)OC)C[C@H](/C=C/C(C)(C)[C@]1(O)O2)O4)O3`, which T/C (dose: 0.01 mg/kg/injection, schedule: Q01DX009 (ip), vehicle: saline + alcohol) is on record?
**A.** 111 % of control

**Q.** What about the T/C (dose: 0.05 mg/kg/injection, schedule: Q01DX009 (ip), vehicle: saline + alcohol) of the same molecule?
**A.** 113 % of control

**Q.** What does the source list for `CCN1CCCc2cc3c(C(F)(F)F)cc(=O)oc3cc21`?
**A.** T/C (dose: 50.0 mg/kg/injection, schedule: Q01DX005 (ip), vehicle: Klucel (hydroxypropylcellulose) (HPC)): 97 % of control; T/C (dose: 100.0 mg/kg/injection, schedule: Q01DX005 (ip), vehicle: Klucel (hydroxypropylcellulose) (HPC)): 106 % of control; T/C (dose: 200.0 mg/kg/injection, schedule: Q01DX005 (ip), vehicle: Klucel (hydroxypropylcellulose) (HPC)): 97 % of control

**Q.** Which results are given for `COC(=O)Cc1[nH]ncc1C(=O)OC`?
**A.** T/C (dose: 60.0 mg/kg/injection, schedule: Q01DX005 (ip), vehicle: saline): 106 % of control; T/C (dose: 120.0 mg/kg/injection, schedule: Q01DX005 (ip), vehicle: saline): 103 % of control; T/C (dose: 240.0 mg/kg/injection, schedule: Q01DX005 (ip), vehicle: saline): 96 % of control

**Q.** With `CC1COS(=O)O1` (stereo not given) as the molecule, how does the T/C (dose: 20.0 mg/kg/injection, schedule: Q01DX009 (ip), vehicle: saline sonified) read?
**A.** 109 % of control

**Q.** What about the T/C (dose: 40.0 mg/kg/injection, schedule: Q01DX009 (ip), vehicle: saline sonified) of the same molecule?
**A.** 109 % of control

**Q.** How did the T/C (dose: 100.0 mg/kg/injection, schedule: Q04DX003 (ip), vehicle: saline with Tween-80) turn out when `CC(=O)OCc1ccc(Cl)c(Cl)c1` was run?
**A.** 100 % of control

**Q.** And the T/C (dose: 200.0 mg/kg/injection, schedule: Q04DX003 (ip), vehicle: saline with Tween-80)?
**A.** 100 % of control

**Q.** What about the T/C (dose: 400.0 mg/kg/injection, schedule: Q04DX003 (ip), vehicle: saline with Tween-80) of the same molecule?
**A.** 104 % of control

**Q.** With `CCOC(=O)c1ccc2c(=O)[nH]nc(CO)c2c1` as the molecule, how does the T/C (dose: 50.0 mg/kg/injection, schedule: Q01DX005 (ip), vehicle: saline with Tween-80) read?
**A.** 104 % of control

**Q.** And the T/C (dose: 100.0 mg/kg/injection, schedule: Q01DX005 (ip), vehicle: saline with Tween-80)?
**A.** 102 % of control

**Q.** And the T/C (dose: 200.0 mg/kg/injection, schedule: Q01DX005 (ip), vehicle: saline with Tween-80)?
**A.** 96 % of control

**Q.** Which T/C (dose: 12.5 mg/kg/injection, schedule: Q01DX001 (ip), vehicle: DMSO) does the source give for `C=Cn1c([N+](=O)[O-])cnc1/C=C/c1ccc(C(=O)OCCN2CCCC2)cc1` here?
**A.** 105 % of control

**Q.** What about the T/C (dose: 25.0 mg/kg/injection, schedule: Q01DX001 (ip), vehicle: DMSO) of the same molecule?
**A.** 98 % of control

**Q.** What about the T/C (dose: 50.0 mg/kg/injection, schedule: Q01DX001 (ip), vehicle: DMSO) of the same molecule?
**A.** 104 % of control

**Q.** What about the T/C (dose: 100.0 mg/kg/injection, schedule: Q01DX001 (ip), vehicle: DMSO) of the same molecule?
**A.** 100 % of control

**Q.** How did the T/C (dose: 100.0 mg/kg/injection, schedule: Q04DX003 (ip), vehicle: saline) turn out when `CC(=O)Oc1ccccc1C(=O)OC1CCN(C(C)C)C1` (stereo not given) was run?
**A.** 100 % of control

**Q.** And the T/C (dose: 200.0 mg/kg/injection, schedule: Q04DX003 (ip), vehicle: saline)?
**A.** 95 % of control
